The data set concerns RA patients. Put plainly: Example 1: adverse events. The data set is classed as in vivo, human. As for the experimental part:
Ethical committee approval was obtained. […] Safety and efficacy visits, with blood sampling, were between 0730 and 0930 h on days 1 (baseline), 2, 3, 4, 5 (visit 5a), 10, and 15. There was an additional visit (visit 5b) between 1930 and 2130 h when maximum GnRH suppression was anticipated.
Predefined secondary end-points included the baseline adjusted between-group difference inTNF-α, ACR20/50/70 responses, European League Against Rheumatism (EULAR) responses, DAS28-CRP <2.6 and ≦3.2, and adverse events.
The Newcombe hybrid score interval was used to estimate 95% confidence intervals (CI) for the difference between proportions (Fagerland M W, et al., Stat Methods Med Res 2011). No adjustments for multiple analyses were made, owing to the highly correlated variables. All clinical, biochemical, and safety data were analyzed by an intention-to-treat analysis. Only predefined endpoints are presented. The intention-to-treat population was predefined in the protocol as all randomized patients who received any injections of study drug. Missing values were <1% and could, as predefined, be imputed with the last observation carried forward. The assumptions of normality needed for analyses were approximately valid. The Spearman rank correlation coefficient (Spearman's rho) was used to estimate the association between pairs of continuous variables.

The source of these data is patent publication US9618507B2, “Methods of treating rheumatoid arthritis” (Betanien Hospital, priority 2014, dated 2017).

Where a SMILES comes first, the peptide text is derived from it. [ ]: non-standard residue; d: D form. dPhe(4-Cl) = N[C@H](Cc1ccc(Cl)cc1)C(=O)O; d2Nal = N[C@H](Cc1ccc2ccccc2c1)C(=O)O; dCit = NC(=O)NCCC[C@@H](N)C(=O)O; d3Pal = N[C@H](Cc1cccnc1)C(=O)O

Take `CC(=O)N[C@H](Cc1ccc2ccccc2c1)C(=O)N[C@H](Cc1ccc(Cl)cc1)C(=O)N[C@H](Cc1cccnc1)C(=O)N[C@@H](CO)C(=O)N[C@@H](Cc1ccc(O)cc1)C(=O)N[C@H](CCCNC(N)=O)C(=O)N[C@@H](CC(C)C)C(=O)N[C@@H](CCCNC(=N)N)C(=O)N1CCC[C@H]1C(=O)N[C@H](C)C(N)=O` [cetrorelix] (Ac-[d2Nal][dPhe(4-Cl)][d3Pal]SY[dCit]LRP[dA]-NH2): under “N = 48”, the “Adverse effects: Headache” value is 2 (4.2) n (percent), the “Adverse effects: Hot flushes” value is on record as 2 (4.2) n (percent), the “Adverse effects: Injection site discomfort” value is given as 3 (6.3) n (percent) and the “Adverse effects: Menstrual spotting” value is recorded as 2 (4.2) n (percent). Where the note is “N = 48”, the “Adverse effects: Nasopharyngitis” value was 1 (2.1) n (percent), the “Adverse effects: Nausea” value is 0 n (percent), the “Adverse effects: Toothache” value is listed as 0 n (percent) and the “Adverse effects: Urinary tract infection” value was 1 (2.1) n (percent). In addition, the serious side-effects result (all patients) was “no serious side-effects were observed”.
